Experimental data: patent publication EP0641563A1, “REMEDY FOR CATARACT AND PRODUCTION THEREOF” (TAISHO PHARMACEUTICAL CO. LTD, priority 1992, dated 1993)
Blank lines part the entries; values can stand above or below the compound they belong to.

Columns and labels:
cultured rat lenses [1] = test: Calcium ionophore-induced cataract in cultured rat lenses (opacity by image analyser); format: cell-based, male S.D. rats; conditions: 10 µM calcium ionophore (A23187)
Procedure: Lenses were dissected from 4-week-old male S.D. rats, and cultured for one day in (1) a basic culture medium (MEM), (2) a culture medium of (1) supplemented with 10 µM calcium ionophore (A23187), or (3) a culture medium of (2) supplemented with 4, 20, 100 or 500 µM E-64 or E-64d. Thereafter, the medium was changed as follows: (1) basic medium, (2) basic medium, and (3) basic medium with several concentrations of E-64 or E-64d, and culture was continued for 4 more days, after which opacity of lenses was measured using an image analyser. The ratio of the inhibition of the development of lens opacity by each test drug (E-64, E-64d) to that in the control group is shown in Fig. 2. […] As is evident from the results of Fig. 2, E-64 or E-64d inhibited the opacity of lens caused by calcium ionophore in a concentration-dependent manner. The inhibition effect was stronger in E-64d than in E-64, and the opacity of lens was inhibited by 50% or more at a concentration of 20 µM.

cultured rat lenses [2] = conditions: selenite cataract models and diabetic cataract models of cultured rat lenses; Atarashii Ganka, vol. 6, 1573-1576 (1989); cited from earlier work
[3] = tested on: galactose cataract in rats; test: Galactose cataract in rats (slit lamp, Sippel grades); format: in vivo, male SD rats; conditions: for progression of cataract (grades of Sippel) compared with control: Wilcoxon method; for progression of cataract compared with control, time series variance analysis: up to day 28
Procedure: Three-week-old male SD rats (n=30) were bred in a breeding room having a temperature of 24±4°C and humidity of 55±15%, on Labo MR stock (manufactured by Nihon Nosan Kogyo Co., Ltd., Japan) and tap water.
As the test drugs, used were (1) 1% solution of E-64c prepared by dissolving E-64c bulk powder in 0.1N sodium hydroxide, adjusting the pH to 5 with 0.1N hydrochloric acid, and adding purified water; and (2) 1% suspension of E-64d prepared by suspending E-64d bulk powder in 0.3% Tween 80, the osmotic pressure of both of which having been adjusted to 290 mOsm/kg H₂O with sodium chloride. As a control, used was (3) physiological saline.
The test animals were pre-bred for a week, and then bred on a 25% galactose feed (solidified product of a mixture of galactose and Labo MR stock powder at the ratio of 1:3). The animals were fed for 24 hours daily for the first 7 days, and 9 hours a day from the 8th day. The test drugs were administered from the day when galactose feeding was initiated, and (1) was administered intraperitoneally once a day (100 mg/kg, 1 ml/100g as liquid), and (2) was instilled only in the right eye 4 times a day by 5 µl at a time without treatment to the left eye. The control group was instilled with (3) in the same manner as in the case of (2) without treatment to the left eye.
Lenses were observed under mydriasis using a slit lamp (SL-5D) at 7 day-intervals from the initiation of the test drug and physiological saline (control) administrations until day 28, and the progression of cataract up to the mature cataract was evaluated according to the following 8 stages of cataract grades defined by Sippel [Invest. Ophthalmol., vol. 6, 568-575 (1966)].

[4] = Corneal permeability in vitro (side-by-side permeation cell)
Procedure: Corneal permeability was tested in vitro using a side-by-side type permeation cell equipped with cornea from albino rabbit. A 1% E-64c solution prepared using a buffer having the following formulation was charged in a donor cell, and the following buffer was charged in a receptor cell, and they were incubated at 34°C. The amount of E-64c permeated into the receptor cell was measured with time. The accumulative amount of the permeated E-64c was measured 1, 2, and 3 hours later.
In the same manner as in Experiment Example 4, corneal permeability of a 1% E-64d suspension (pH 7) was examined.

cataract in Nakano mouse = test: Cataract in Nakano mouse, intraperitoneal administration; format: in vivo, Nakano mice
Procedure: Thirty-five Nakano mice (9 days old) were divided into three groups, and each group was intraperitoneally administered once a day with E-64d at 30 mg/kg or 100 mg/kg, or 5% gum arabic solution as a control. E-64d was suspended in 5% gum arabic solution at a concentration of 0.15% or 0.5%, respectively, and administered to the mice. After the eyes of the mice opened, opacity of the lens was observed using a slip lamp to evaluate progress of cataract.

[5] = pH stability of 1% E-64d suspensions; format: physicochemical; conditions: 1% E-64d suspension
Text: The stability of 1% E-64d suspensions adjusted to various pHs was examined. […]

SMILES: CC(C)C[C@H](NC(=O)[C@H]1O[C@@H]1C(=O)O)C(=O)NCCCCNC(=N)N [E-64, trans-epoxysuccinyl-leucylamide-(4-guanidino)butane, reference compound]
inhibition of the opacity of lens caused by calcium ionophore (cultured rat lenses [1]; 4, 20, 100 or 500 µM): concentration-dependent
effect on opacity of lens (cultured rat lenses [2]): can prevent opacity of lens

corneal permeability, dependence on pH [4]: pH-dependent
SMILES: CC(C)CCNC(=O)[C@H](CC(C)C)NC(=O)[C@H]1O[C@@H]1C(=O)O [E-64c, (+)-(2S,3S)-3[(S)-3-methyl-1-(3-methylbutylcarbamoyl)butylcarbamoyl]-2-oxiranecarboxylic acid]
progression of cataract (grades of Sippel) compared with control ([3]; 1% E-64c solution, 100 mg/kg intraperitoneally once a day, 14 days from initiation of administration): significant delay of cataract
progression of cataract compared with control, time series variance analysis ([3]; 1% E-64c solution, 100 mg/kg intraperitoneally once a day): significant delay of cataract
effect on corneal tissue ([4]; 1% E-64c solution, pH range of 3 or below): tissue disorders causing corneal opacity were observed

E-64d in the receptor solution ([4]; pH 7): not detected
stability ([5]; in the vicinity of pH 4-6): stable
residual rate ([5]; pH 4, 40°C (4 wk), 40320 min): 96.6%
residual rate ([5]; pH 4, 60°C (1 wk), 10080 min): 98.7%
residual rate ([5]; pH 5, 40°C (4 wk), 40320 min): 99.8%
residual rate ([5]; pH 5, 60°C (1 wk), 10080 min): 98.7%
residual rate ([5]; pH 6, 40°C (4 wk), 40320 min): 95.2%
residual rate ([5]; pH 6, 60°C (1 wk), 10080 min): 97.9%
residual rate ([5]; pH 7, 40°C (4 wk), 40320 min): 75.7%
SMILES: CCOC(=O)[C@H]1O[C@@H]1C(=O)N[C@@H](CC(C)C)C(=O)NCCC(C)C [E-64d]
progression of cataract (grades of Sippel) compared with control ([3]; 1% E-64d suspension instilled 4 times a day, 5 µl, 7 days from initiation of administration): significant delay of cataract
progression of cataract (grades of Sippel) compared with control ([3]; 1% E-64d suspension instilled 4 times a day, 5 µl, 14 days from initiation of administration): significant delay of cataract
progression of cataract (grades of Sippel) compared with control ([3]; 1% E-64d suspension instilled 4 times a day, 5 µl, 21 days from initiation of administration): delaying tendency
progression of cataract compared with control, time series variance analysis ([3]; 1% E-64d suspension instilled 4 times a day, 5 µl): significant delay of cataract
inhibition effect on lens opacity, E-64d compared with E-64 (cultured rat lenses [1]; 4, 20, 100 or 500 µM): stronger
inhibition of the opacity of lens caused by calcium ionophore (cultured rat lenses [1]; 4, 20, 100 or 500 µM): concentration-dependent
inhibition at 20 µM (cultured rat lenses [1]; Rattus norvegicus, 120 h, 20 µM, 5 days culture, read-out: percent inhibition of lens opacity based on the opacity in the control group): ≥ 50%
proportion of the group showing nuclear opacity (cataract in Nakano mouse; 30 mg/kg intraperitoneally once a day, mice 21 days old (control about 40%)): about 12%
development of nuclear opacity (cataract in Nakano mouse; 100 mg/kg intraperitoneally once a day, mice 21 days old (control about 40%)): no development of opacity was observed
degree of nuclear opacity compared with control, time-course observation (cataract in Nakano mouse; E-64d 30 or 100 mg/kg intraperitoneally once a day): limited to a smaller degree
